In patent publication US9334264B2, “NAMPT inhibitors” (AbbVie Inc., priority 2012, dated 2016) one finds IC50 data, which are given here for 24 compounds.

pIC50: −log10 of the molar value.

The target in assay [1] is NAMPT (human, recombinant, C-terminally His-tagged) (Homo sapiens, UniProt P43490). Nature of the assay: Time-Resolved Fluorescence Resonance Energy Transfer (TR-FRET) Binding Assay of NAMPT. The settings on record: absence of substrates; 6.8 nM NAMPT, 200 nM probe, equilibrated 3 hours. How it is done:
Determination of the utility of compounds having Formula (I) as binders to and inhibitors of NAMPT was performed using Time-Resolved Fluorescence Resonance Energy Transfer (TR-FRET) binding assays.
Time-Resolved Fluorescence Resonance Energy Transfer (TR-FRET) Binding Assay of NAMPT
Test compounds were serially diluted (typically 11 half log dilutions) in neat DMSO to 50× final concentrations prior to dilution with assay buffer (50 mM HEPES (NaOH), pH 7.5, 100 mM NaCl, 10 mM MgCl2, 1 mM DTT, 1% Glycerol) to 3× and 6% DMSO. Six μL were transferred to 384-well low-volume plates (Owens Corning #3673). To this, 12 μL of a 1.5× solution containing enzyme, probe and antibody were added. Final concentrations in the 18 μL reactions were 1× assay buffer, 2% DMSO, 6.8 nM NAMPT (human, recombinant, C-terminally His-tagged), 200 nM probe (a potent nicotinamide-competitive inhibitor conjugated to Oregon Green 488) and 1 nM Tb-anti-His antibody (Invitrogen #PV5895). Reactions were equilibrated at room temperature for 3 hours prior to reading on an Envision multi-label plate reader (Perkin Elmer; Ex=337 nm, Em=520 and 495 nm). Time-resolved FRET ratios (Em520/Em495) were normalized to controls, plotted as a function of compound concentration and fit with the four-parameter logistic equation to determine IC50s.
For orientation: TR-FRET usually uses a lanthanide donor and a delayed reading to cut background.

For assay [2], the target named is NAMPT (Homo sapiens, UniProt P43490). Nature of the assay: Time-Resolved Fluorescence Resonance Energy Transfer (TR-FRET) Binding Assay of NAMPT with PRPP. The note with it: 200 μM PRPP and 2.5 mM ATP; 2 nM NAMPT, 2 nM probe, equilibrated 16 hours. On the procedure:
Time-Resolved Fluorescence Resonance Energy Transfer (TR-FRET) Binding Assay of NAMPT with PRPP
Compound handling and data processing were identical to the assay in the absence of substrates (above). Final concentrations were 1× assay buffer, 2% DMSO, 2 nM NAMPT, 2 nM probe, 1 nM Tb-anti-His antibody (Invitrogen #PV5895), 200 μM PRPP and 2.5 mM ATP. Reactions were equilibrated for 16 hours prior to measurement to allow for potential enzymatic modification of test compounds.

Sequence of NAMPT (P43490 whole entry): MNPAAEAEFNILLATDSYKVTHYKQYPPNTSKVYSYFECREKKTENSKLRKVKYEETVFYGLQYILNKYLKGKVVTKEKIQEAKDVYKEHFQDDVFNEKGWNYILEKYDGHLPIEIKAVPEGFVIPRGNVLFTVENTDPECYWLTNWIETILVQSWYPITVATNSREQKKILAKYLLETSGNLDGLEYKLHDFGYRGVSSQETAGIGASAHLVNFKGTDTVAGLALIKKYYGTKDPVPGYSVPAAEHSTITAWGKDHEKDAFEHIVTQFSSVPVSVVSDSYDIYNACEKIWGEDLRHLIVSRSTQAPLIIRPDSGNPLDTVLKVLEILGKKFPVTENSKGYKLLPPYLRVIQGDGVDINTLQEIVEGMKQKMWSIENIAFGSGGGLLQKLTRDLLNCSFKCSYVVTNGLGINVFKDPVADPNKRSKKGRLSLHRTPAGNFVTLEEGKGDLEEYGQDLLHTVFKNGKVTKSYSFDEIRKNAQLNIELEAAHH
Sequence of NAMPT (human, recombinant, C-terminally His-tagged) (P43490 whole entry): as above

As for `O=C(NCCCn1ccnc1)c1cnc(N(Cc2ccc(F)cc2)C(=O)CN2CCC(O)CC2)s1` [Example 29, 2-{(4-fluorobenzyl)[(4-hydroxypiperidin-1-yl)acetyl]amino}-N-[3-(1H-imidazol-1-yl)propyl]-1,3-thiazole-5-carboxamide], the pIC50 in assay [1] is below 5.00; in assay [2] it was 8.67.

Consider `CN1CCN(CC(=O)N(Cc2ccc(F)cc2)c2ncc(C(=O)NCCCn3ccnc3)s2)CC1` [Example 30, 2-{(4-fluorobenzyl)[(4-methylpiperazin-1-yl)acetyl]amino}-N-[3-(1H-imidazol-1-yl)propyl]-1,3-thiazole-5-carboxamide], for which the negative-log IC50 (pIC50) was below 5.00 in assay [1] and 8.64 in assay [2].

With `CC(C)N1CCN(CC(=O)N(Cc2ccc(F)cc2)c2ncc(C(=O)NCCCn3ccnc3)s2)CC1` [Example 31, 2-[(4-fluorobenzyl){[4-(propan-2-yl)piperazin-1-yl]acetyl}amino]-N-[3-(1H-imidazol-1-yl)propyl]-1,3-thiazole-5-carboxamide], the negative logarithm of the IC50 (pIC50) is 5.44 in assay [1] and 9.05 in assay [2].

Regarding `O=CN1CCN(CC(=O)N(Cc2ccc(F)cc2)c2ncc(C(=O)NCCCn3ccnc3)s2)CC1` [Example 32, 2-{(4-fluorobenzyl)[(4-formylpiperazin-1-yl)acetyl]amino}-N-[3-(1H-imidazol-1-yl)propyl]-1,3-thiazole-5-carboxamide], the pIC50 is below 5.00 in assay [1] and 8.88 in assay [2].

With `O=C(NCCCn1ccnc1)c1cnc(N(Cc2ccc(F)cc2)C(=O)CN2CCN3CCCC3C2)s1` (stereo not drawn) [Example 33, 2-[(4-fluorobenzyl)(hexahydropyrrolo[1,2-a]pyrazin-2(1H)-ylacetyl)amino]-N-[3-(1H-imidazol-1-yl)propyl]-1,3-thiazole-5-carboxamide], the values for the pIC50 in assay [1] and in assay [2] were 5.05 and 8.91, respectively.

For `O=C(NCCCn1ccnc1)c1cnc(N(Cc2ccc(F)cc2)C(=O)CN2CCN(CC3CC3)CC2)s1` [Example 34, 2-[{[4-(cyclopropylmethyl)piperazin-1-yl]acetyl}(4-fluorobenzyl)amino]-N-[3-(1H-imidazol-1-yl)propyl]-1,3-thiazole-5-carboxamide], the negative-log IC50 (pIC50) in assay [1] was 5.12; in assay [2], 9.30.

On to `CCOCCN1CCN(CC(=O)N(Cc2ccc(F)cc2)c2ncc(C(=O)NCCCn3ccnc3)s2)CC1` [Example 35, 2-[{[4-(2-ethoxyethyl)piperazin-1-yl]acetyl}(4-fluorobenzyl)amino]-N-[3-(1H-imidazol-1-yl)propyl]-1,3-thiazole-5-carboxamide], for which the values for the pIC50 in assay [1] and in assay [2] were below 5.00 and 8.50, respectively.

As to `C=CCN1CCN(CC(=O)N(Cc2ccc(F)cc2)c2ncc(C(=O)NCCCn3ccnc3)s2)CC1` [Example 37, 2-[(4-fluorobenzyl){[4-(prop-2-en-1-yl)piperazin-1-yl]acetyl}amino]-N-[3-(1H-imidazol-1-yl)propyl]-1,3-thiazole-5-carboxamide], the negative logarithm of the IC50 (pIC50) in assay [1] is 5.32; in assay [2], 9.27.

As for `COCCCN1CCN(CC(=O)N(Cc2ccc(F)cc2)c2ncc(C(=O)NCCCn3ccnc3)s2)CC1` [Example 38, 2-[(4-fluorobenzyl){[4-(3-methoxypropyl)piperazin-1-yl]acetyl}amino]-N-[3-(1H-imidazol-1-yl)propyl]-1,3-thiazole-5-carboxamide], the pIC50 was 5.57 in assay [1] and 8.87 in assay [2].

`CN(C)C1CCN(CC(=O)N(Cc2ccc(F)cc2)c2ncc(C(=O)NCCCn3ccnc3)s2)C1` (stereo not drawn) [Example 39, 2-[{[3-(dimethylamino)pyrrolidin-1-yl]acetyl}(4-fluorobenzyl)amino]-N-[3-(1H-imidazol-1-yl)propyl]-1,3-thiazole-5-carboxamide]: the pIC50 in assay [1] is 5.62; in assay [2] it was 9.03.

As to `O=C(NCCCn1ccnc1)c1cnc(N(Cc2ccc(F)cc2)C(=O)CN2CCOCC2)s1` [Example 40, 2-[(4-fluorobenzyl)(morpholin-4-ylacetyl)amino]-N-[3-(1H-imidazol-1-yl)propyl]-1,3-thiazole-5-carboxamide], the pIC50 is 5.66 in assay [1] and 8.70 in assay [2].

With `O=C(NCCCn1ccnc1)c1cnc(N(Cc2ccc(F)cc2)C(=O)CN2CCCC(O)C2)s1` (stereo not drawn) [Example 41, 2-{(4-fluorobenzyl)[(3-hydroxypiperidin-1-yl)acetyl]amino}-N-[3-(1H-imidazol-1-yl)propyl]-1,3-thiazole-5-carboxamide], the pIC50 in assay [1] is 5.07; in assay [2], 7.53.

On to `O=C(NCCCn1ccnc1)c1cnc(N(Cc2ccc(F)cc2)C(=O)CN2CCN(CCO)CC2)s1` [Example 42, 2-[(4-fluorobenzyl){[4-(2-hydroxyethyl)piperazin-1-yl]acetyl}amino]-N-[3-(1H-imidazol-1-yl)propyl]-1,3-thiazole-5-carboxamide], for which the pIC50 in assay [1] is below 5.00; in assay [2], 7.61.

Consider `O=C(NCCCn1ccnc1)c1cnc(N(Cc2ccc(F)cc2)C(=O)CN2CCC3(C2)OCCO3)s1` [Example 43, 2-[(1,4-dioxa-7-azaspiro[4.4]non-7-ylacetyl)(4-fluorobenzyl)amino]-N-[3-(1H-imidazol-1-yl)propyl]-1,3-thiazole-5-carboxamide], for which the results for the negative-log IC50 (pIC50) in assay [1] and in assay [2] were 5.09 and 9.15, respectively.

Take `O=C(NCCCn1ccnc1)c1cnc(N(Cc2ccc(F)cc2)C(=O)C[n+]2ccccc2)s1` [Example 44, 1-{2-[(4-fluorobenzyl)(5-{[3-(1H-imidazol-1-yl)propyl]carbamoyl}-1,3-thiazol-2-yl)amino]-2-oxoethyl}pyridinium]: the pIC50 was below 5.00 in assay [1] and 8.11 in assay [2].

For the compound `CC(C)CC(=O)N(CCc1ccc(F)cc1)c1ncc(C(=O)NCCCn2ccnc2)s1` [Example 45, 2-{[2-(4-fluorophenyl)ethyl](3-methylbutanoyl)amino}-N-[3-(1H-imidazol-1-yl)propyl]-1,3-thiazole-5-carboxamide], the values for the negative-log IC50 (pIC50) in assay [1] and in assay [2] were 6.21 and 9.69, respectively.

On to `CC(C)NC(=O)N(Cc1ccc(F)cc1)c1ncc(C(=O)NCCCn2ccnc2)s1` [Example 46, 2-[(4-fluorobenzyl)(propan-2-ylcarbamoyl)amino]-N-[3-(1H-imidazol-1-yl)propyl]-1,3-thiazole-5-carboxamide], for which the pIC50 in assay [1] is 5.02; in assay [2], 8.66.

Take `CC(C)CC(=O)N(CCc1ccc(C#N)cc1)c1ncc(C(=O)NCCCn2ccnc2)s1` [Example 48, 2-{[2-(4-cyanophenyl)ethyl](3-methylbutanoyl)amino}-N-[3-(1H-imidazol-1-yl)propyl]-1,3-thiazole-5-carboxamide]: the pIC50 was 6.09 in assay [1] and 9.15 in assay [2].

For the compound `N#Cc1ccc(CCN(C(=O)CC2CCOCC2)c2ncc(C(=O)NCCCn3ccnc3)s2)cc1` [Example 49, 2-{[2-(4-cyanophenyl)ethyl](tetrahydro-2H-pyran-4-ylacetyl)amino}-N-[3-(1H-imidazol-1-yl)propyl]-1,3-thiazole-5-carboxamide], the values for the negative logarithm of the IC50 (pIC50) in assay [1] and in assay [2] were 5.77 and 8.97, respectively.

For `CC(C)CC(=O)N(Cc1ccc(C#N)cc1)c1ncc(C(=O)NCCCn2ccnc2)s1` [Example 50, 2-[(4-cyanobenzyl)(3-methylbutanoyl)amino]-N-[3-(1H-imidazol-1-yl)propyl]-1,3-thiazole-5-carboxamide], the negative logarithm of the IC50 (pIC50) is 5.93 in assay [1] and 8.60 in assay [2].

As to `N#Cc1ccc(CN(C(=O)CC2CCOCC2)c2ncc(C(=O)NCCCn3ccnc3)s2)cc1` [Example 51, 2-[(4-cyanobenzyl)(tetrahydro-2H-pyran-4-ylacetyl)amino]-N-[3-(1H-imidazol-1-yl)propyl]-1,3-thiazole-5-carboxamide], the figures for the negative logarithm of the IC50 (pIC50) in assay [1] and in assay [2] were below 5.00 and 8.31, respectively.

For the compound `N#Cc1ccc(CCN(C(=O)CC2CCOC2)c2ncc(C(=O)NCCCn3ccnc3)s2)cc1` (stereo not drawn) [Example 52, 2-{[2-(4-cyanophenyl)ethyl](tetrahydrofuran-3-ylacetyl)amino}-N-[3-(1H-imidazol-1-yl)propyl]-1,3-thiazole-5-carboxamide], the pIC50 was 6.00 in assay [1] and 9.06 in assay [2].

On to `Cc1nccn1CCCNC(=O)c1cnc(N(Cc2ccc(F)cc2)C(=O)CC(C)C)s1` [Example 53, 2-[(4-fluorobenzyl)(3-methylbutanoyl)amino]-N-[3-(2-methyl-1H-imidazol-1-yl)propyl]-1,3-thiazole-5-carboxamide], for which the negative logarithm of the IC50 (pIC50) was 5.60 in assay [1] and 6.49 in assay [2].

As for `Cc1cn(CCCNC(=O)c2cnc(N(Cc3ccc(F)cc3)C(=O)CC(C)C)s2)cn1` [Example 54, 2-[(4-fluorobenzyl)(3-methylbutanoyl)amino]-N-[3-(4-methyl-1H-imidazol-1-yl)propyl]-1,3-thiazole-5-carboxamide], the results for the pIC50 in assay [1] and in assay [2] were 5.68 and 8.25, respectively.

For orientation: pIC50 means −log10 of the IC50, conventionally taken in molar units.
